Reference: US10752615B2, “Spirocyclic containing compounds and pharmaceutical uses thereof” (GB005, Inc., priority 2016, dated 2020)

Legend:
TXK = TXK (Homo sapiens (Human), UniProt P42681); assay: Kinase inhibition assay (Nanosyn, microfluidic detection), TXK; assay type: biochemical; settings: 1 mM ATP, 3 hours at 25° C.
Procedure: The in vitro kinase assays were performed at Nanosyn (Santa Clara, Calif.) utilizing microfluidic detection technology. The test compounds were serially pre-diluted in DMSO and added, by the acoustic dispensing (Labcyte® 550), directly to 384 well assay plates into 10 uL of a buffer with enzyme (ITK, TXK, BTK or TEC) comprising: 100 mM HEPES, pH7.5, 5 mM MgCl2, 0.1% bovine serum albumin, 1 mM DTT, 0.01% Triton X-100 and the enzyme. Final DMSO concentration was maintained at 1% in all samples, including the controls. The reactions were initiated by addition of ATP (1 mM final concentration) and the fluorescently labeled peptide substrate to a final concentration of 1 uM, and incubated for 3 hours at 25° C. Following incubation, the reactions were quenched by addition of 40 μL of termination buffer (100 mM HEPES, pH7.5, 0.01% Triton X-100, 50 mM EDTA). Terminated plates were analyzed using Caliper LabChip® 3000 microfluidic electrophoresis instrument (Caliper Life Sciences/Perkin Elmer). […] As substrate and product are separated by electrophoresis, two peaks of fluorescence are observed. Change in the relative fluorescence intensity of the substrate and product peaks was the parameter measured, reflecting enzyme activity. In the presence of inhibitor, the ratio between product and substrate is altered: signal of the product decreases, while the signal of the substrate increases. Activity in each test sample was determined as the product to sum ratio (PSR): P/(S+P), where P is the peak height of the product and S is the peak height of the […]. For each compound, enzyme activity was measured at 12 concentrations spaced by 3× dilution intervals. Negative control samples (0%-inhibition in the absence of inhibitor, DMSO only) and positive control samples (100%-inhibition, in the absence of enzyme or in the presence of control inhibitor) were assembled in replicates of four and were used to calculate %-inhibition values in the presence of compounds. Percent inhibition (Pinh) was determined using the following equation: Pinh=(PSR0%−PSRinh)/(PSR0%−PSR100%)*100, where PSRinh is the product sum ratio in the presence of inhibitor, PSR0% is the product sum ratio in the absence of inhibitor and PSR100% is the product sum ratio in 100%-inhibition control samples. To determine IC50 values, the inhibition curves (Pinh versus inhibitor concentration) were fitted by 4 parameter sigmoid dose-response model using XLfit software (IDBS).

BTK = BTK (Homo sapiens (Human), UniProt Q06187); assay: Kinase inhibition assay (Nanosyn, microfluidic detection), BTK; assay type: biochemical; settings: 1 mM ATP, 3 hours at 25° C.
Procedure: The in vitro kinase assays were performed at Nanosyn (Santa Clara, Calif.) utilizing microfluidic detection technology. The test compounds were serially pre-diluted in DMSO and added, by the acoustic dispensing (Labcyte® 550), directly to 384 well assay plates into 10 uL of a buffer with enzyme (ITK, TXK, BTK or TEC) comprising: 100 mM HEPES, pH7.5, 5 mM MgCl2, 0.1% bovine serum albumin, 1 mM DTT, 0.01% Triton X-100 and the enzyme. Final DMSO concentration was maintained at 1% in all samples, including the controls. The reactions were initiated by addition of ATP (1 mM final concentration) and the fluorescently labeled peptide substrate to a final concentration of 1 uM, and incubated for 3 hours at 25° C. Following incubation, the reactions were quenched by addition of 40 μL of termination buffer (100 mM HEPES, pH7.5, 0.01% Triton X-100, 50 mM EDTA). Terminated plates were analyzed using Caliper LabChip® 3000 microfluidic electrophoresis instrument (Caliper Life Sciences/Perkin Elmer). The enzymatic modification of the peptide substrate (phosphorylation) results in a change of net charge enabling electrophoretic separation of product from substrate. As substrate and product are separated by electrophoresis, two peaks of fluorescence are observed. Change in the relative fluorescence intensity of the substrate and product peaks was the parameter measured, reflecting enzyme activity. In the presence of inhibitor, the ratio between product and substrate is altered: signal of the product decreases, while the signal of the substrate increases. Activity in each test sample was determined as the product to sum ratio (PSR): P/(S+P), where P is the peak height of the product and S is the peak height of the […]. For each compound, enzyme activity was measured at 12 concentrations spaced by 3× dilution intervals. Negative control samples (0%-inhibition in the absence of inhibitor, DMSO only) and positive control samples (100%-inhibition, in the absence of enzyme or in the presence of control inhibitor) were assembled in replicates of four and were used to calculate %-inhibition values in the presence of compounds. Percent inhibition (Pinh) was determined using the following equation: Pinh=(PSR0%−PSRinh)/(PSR0%−PSR100%)*100, where PSRinh is the product sum ratio in the presence of inhibitor, PSR0% is the product sum ratio in the absence of inhibitor and PSR100% is the product sum ratio in 100%-inhibition control samples. To determine IC50 values, the inhibition curves (Pinh versus inhibitor concentration) were fitted by 4 parameter sigmoid dose-response model using XLfit software (IDBS).

Sequence of BTK (Q06187 whole entry): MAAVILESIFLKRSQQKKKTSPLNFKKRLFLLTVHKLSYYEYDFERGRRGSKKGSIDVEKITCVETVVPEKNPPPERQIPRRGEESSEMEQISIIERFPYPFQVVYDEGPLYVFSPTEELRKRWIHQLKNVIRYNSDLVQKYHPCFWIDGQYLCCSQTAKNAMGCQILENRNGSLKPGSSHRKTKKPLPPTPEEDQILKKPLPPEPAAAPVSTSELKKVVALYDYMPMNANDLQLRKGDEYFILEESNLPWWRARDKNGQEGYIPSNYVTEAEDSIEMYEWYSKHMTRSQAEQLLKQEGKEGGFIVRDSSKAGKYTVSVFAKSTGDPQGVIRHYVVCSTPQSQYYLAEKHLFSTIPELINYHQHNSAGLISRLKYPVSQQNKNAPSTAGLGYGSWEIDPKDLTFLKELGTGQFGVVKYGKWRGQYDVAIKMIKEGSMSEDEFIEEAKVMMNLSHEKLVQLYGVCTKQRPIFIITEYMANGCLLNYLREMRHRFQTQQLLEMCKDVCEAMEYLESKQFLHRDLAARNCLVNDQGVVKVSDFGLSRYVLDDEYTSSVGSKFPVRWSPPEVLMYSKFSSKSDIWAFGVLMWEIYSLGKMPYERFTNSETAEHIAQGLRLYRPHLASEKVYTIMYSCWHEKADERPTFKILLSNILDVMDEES
Sequence of TXK (P42681 whole entry): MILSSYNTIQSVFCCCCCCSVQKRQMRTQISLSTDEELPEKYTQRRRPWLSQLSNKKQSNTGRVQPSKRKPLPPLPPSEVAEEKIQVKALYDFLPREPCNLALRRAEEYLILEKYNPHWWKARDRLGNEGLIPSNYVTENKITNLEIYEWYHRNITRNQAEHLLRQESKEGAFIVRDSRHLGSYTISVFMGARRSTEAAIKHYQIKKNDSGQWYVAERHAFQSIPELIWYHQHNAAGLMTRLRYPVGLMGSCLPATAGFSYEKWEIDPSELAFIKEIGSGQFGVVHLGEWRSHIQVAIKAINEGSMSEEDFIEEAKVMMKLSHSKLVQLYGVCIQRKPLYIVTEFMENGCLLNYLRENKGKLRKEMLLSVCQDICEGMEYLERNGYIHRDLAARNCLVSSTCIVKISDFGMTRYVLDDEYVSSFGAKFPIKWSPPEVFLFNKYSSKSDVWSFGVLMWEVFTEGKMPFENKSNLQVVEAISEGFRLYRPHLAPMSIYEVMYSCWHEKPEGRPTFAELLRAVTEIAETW

Row | Compound | IC50 (TXK) | IC50 (BTK)
1 | C=CC(=O)N1CC[C@]2(C1)C[C@H](n1c(NC(=O)c3ccc(C)nc3)nc3cc(CN[C@@H](C)C(C)(C)C)ccc31)C2 [Compound 26] | 0.99 nM | 2.84 nM
2 | C#Cc1ccc(C(=O)Nc2nc3cc(CN[C@@H](C)C(C)(C)C)ccc3n2[C@H]2C[C@@]3(CCN(C(=O)C=C)C3)C2)s1 [Compound 28] | 0.63 nM | 1.7 nM
3 | C=CC(=O)N1CC[C@]2(C1)C[C@H](n1c(NC(=O)c3ccc(-c4cc(N)ncn4)s3)nc3ccccc31)C2 [Compound 141] | 0.29 nM | 1.83 nM
4 | C=CC(=O)N1CC[C@]2(C1)C[C@H](n1c(NC(=O)c3ccc(C(F)F)s3)nc3ccccc31)C2 [Compound 15] | 0.55 nM | 4.4 nM
5 | C=CC(=O)N1CC[C@]2(C1)C[C@H](n1c(NC(=O)c3ccc(C)s3)nc3ccccc31)C2 [Compound 104] | 2.16 nM | 26.2 nM
6 | C=CC(=O)N1CC[C@]2(C1)C[C@H](n1c(NC(=O)c3ccc(-c4cnco4)s3)nc3ccc(F)cc31)C2 [Compound 58] | 0.29 nM | 1.32 nM
7 | C=CC(=O)N1CC[C@]2(C1)C[C@H](n1c(NC(=O)c3ccc(-c4cnco4)s3)nc3ccc(Cl)cc31)C2 [Compound 65] | 0.42 nM | 1.99 nM
8 | C=CC(=O)N1CC[C@]2(C1)C[C@H](n1c(NC(=O)c3ccncc3)nc3cc(CN[C@@H](C)C(C)(C)C)ccc31)C2 [Compound 20] | 1.84 nM | 4.52 nM
9 | C=CC(=O)N1CC[C@]2(C1)C[C@H](n1c(NC(=O)c3ccc(-c4cnco4)s3)nc3cc(CN4CCCC4)ccc31)C2 [Compound 40] | 0.72 nM | 1.16 nM
10 | C#Cc1ccc(C(=O)Nc2nc3ccccc3n2[C@H]2C[C@@]3(CCN(C(=O)C=C)C3)C2)s1 [Compound 107] | 5.25 nM | 21.1 nM
11 | C=CC(=O)N1CC[C@]2(C1)C[C@H](n1c(NC(=O)c3ccc(C(F)F)s3)nc3cc(CN[C@H]4C[C@H](O)C4)ccc31)C2 [Compound 36] | 0.63 nM | 1.14 nM
12 | C=CC(=O)N1CC[C@]2(C1)C[C@H](n1c(NC(=O)c3cccc(-c4cnco4)c3)nc3cc(CN[C@@H](C)C(C)(C)C)ccc31)C2 [Compound 38] | 0.67 nM | 4.08 nM
13 | C=CC(=O)N1CC[C@]2(C1)C[C@H](n1c(NC(=O)c3ccc(C(F)F)s3)nc3cc(CN4CCCC4)ccc31)C2 [Compound 34] | 0.45 nM | 1.39 nM
14 | C=CC(=O)N1CC[C@]2(C1)C[C@H](n1c(NC(=O)c3ccnn3C)nc3cc(CN[C@@H](C)C(C)(C)C)ccc31)C2 [Compound 14] | 3.9 nM | 23.4 nM
15 | C=CC(=O)N1CC[C@]2(C1)C[C@H](n1c(NC(=O)c3ccn(C)c(=O)c3)nc3ccccc31)C2 [Compound 84] | 19.8 nM | 65.3 nM
16 | C=CC(=O)N1CC[C@]2(C1)C[C@H](n1c(NC(=O)c3ccc(-c4cnco4)s3)nc3cc(N(C)C(C)=O)ccc31)C2 [Compound 53] | 0.39 nM | 0.64 nM
17 | C=CC(=O)N1CC[C@]2(C1)C[C@H](n1c(NC(=O)c3ccc(-c4ccnc(NC)n4)s3)nc3ccccc31)C2 [Compound 137] | 0.76 nM | 0.98 nM
18 | C=CC(=O)N1CC[C@]2(C1)C[C@H](n1c(NC(=O)c3ccc(-c4ccc(C)nc4)s3)nc3ccccc31)C2 [Compound 143] | 9.08 nM | 7.92 nM
19 | C=CC(=O)N1CC[C@]2(C1)C[C@H](n1c(NC(=O)c3ccc(OC)nc3)nc3ccccc31)C2 [Compound 55] | 3.41 nM | 27.4 nM

Row | Compound | IC50 (TXK) | IC50 (BTK)
20 | C=CC(=O)N1CC[C@]2(C1)C[C@H](n1c(NC(=O)c3ccc(-c4cnco4)s3)nc3cccc(F)c31)C2 [Compound 56] | 0.26 nM | 1.56 nM
21 | C=CC(=O)N1CC[C@]2(C1)C[C@H](n1c(NC(=O)c3ccc(-n4cccn4)s3)nc3ccccc31)C2 [Compound 89] | 3.17 nM | 23.7 nM
22 | C=CC(=O)N1CC[C@]2(C1)C[C@H](n1c(NC(=O)c3ccc(C)nc3)nc3ccccc31)C2 [Compound 47] | 2.69 nM | 11.3 nM
23 | C=CC(=O)N1CC[C@]2(C1)C[C@H](n1c(NC(=O)c3ccns3)nc3ccccc31)C2 [Compound 46] | 1.1 nM | 1.44 nM
24 | C=CC(=O)N1CC[C@]2(C1)C[C@H](n1c(NC(=O)c3ccc(-c4cnco4)s3)nc3cc(N(C)C(=O)C(C)C)ccc31)C2 [Compound 54] | 0.3 nM | 0.56 nM
25 | C=CC(=O)N1CC[C@]2(C1)C[C@H](n1c(NC(=O)c3ccno3)nc3cc(CN[C@@H](C)C(C)(C)C)ccc31)C2 [Compound 21] | 1.22 nM | 1.54 nM
26 | C=CC(=O)N1CC2(CC(n3c(NC(=O)c4ccc(C(F)F)s4)nc4cc(CN[C@@H](C)C(C)(C)C)ccc43)C2)C1 [Compound 1] | 52.6 nM | 378 nM
27 | C=CC(=O)N1CC[C@]2(C1)C[C@H](n1c(NC(=O)c3ccc(NC(=O)CC)s3)nc3ccccc31)C2 [Compound 105] | 23.2 nM | 112 nM
28 | C=CC(=O)N1CC[C@]2(C1)C[C@H](n1c(NC(=O)c3ccc(-c4ccc(=O)n(C)c4)s3)nc3ccccc31)C2 [Compound 108] | 1.02 nM | 10.4 nM
29 | C=CC(=O)N1CC[C@]2(C1)C[C@H](n1c(NC(=O)c3ccc(C(=O)NCC)s3)nc3ccccc31)C2 [Compound 101] | 0.93 nM | 9.24 nM
30 | C=CC(=O)N1CC[C@]2(C1)C[C@H](n1c(NC(=O)c3ccc(-c4c[nH]nc4C4CC4)s3)nc3ccccc31)C2 [Compound 129] | 0.21 nM | 0.84 nM
31 | C=CC(=O)N1CC[C@]2(C1)C[C@H](n1c(NC(=O)c3ccc(-c4ccnn4C)s3)nc3ccccc31)C2 [Compound 75] | 0.12 nM | 1.03 nM
32 | C=CC(=O)N1CC[C@]2(C1)C[C@H](n1c(NC(=O)c3ccc(-c4ccc(CO)nc4)s3)nc3ccccc31)C2 [Compound 144] | 1.51 nM | 3.45 nM
33 | C=CC(=O)N1CC[C@]2(C1)C[C@H](n1c(NC(=O)c3ccc(-c4cnco4)s3)nc3ccc(CN4CCOCC4)cc31)C2 [Compound 77] | 0.37 nM | 0.78 nM
34 | C=CC(=O)N1CC[C@]2(C1)C[C@H](n1c(NC(=O)c3ccc(-c4ccc(=O)[nH]c4)s3)nc3ccccc31)C2 [Compound 99] | 1.01 nM | 10.2 nM
35 | C=CC(=O)N1CC[C@]2(C1)C[C@H](n1c(NC(=O)c3ccc(-c4ccnc(OC)c4)s3)nc3ccccc31)C2 [Compound 96] | 0.35 nM | 1.55 nM
36 | C=CC(=O)N1CC[C@]2(C1)C[C@H](n1c(NC(=O)c3ccc(C(F)F)s3)nc3cc(CN[C@H]4CC[C@H](O)CC4)ccc31)C2 [Compound 35] | 0.46 nM | 1.04 nM
37 | C=CC(=O)N1CC[C@]2(C1)C[C@H](n1c(NC(=O)c3ccc(-c4ccc(NC)nc4)s3)nc3ccccc31)C2 [Compound 117] | 4.9 nM | 7.43 nM
